In this assay the target is Amyloid-beta precursor protein (Homo sapiens, UniProt P05067). Description: Inhibition of human amyloid beta (1 to 40) assessed as reduction in aggregation measured after 24 hrs by ThT fluorescence assay.

Structures are written as SMILES.

Amyloid-beta precursor protein, sequence (P05067 whole entry): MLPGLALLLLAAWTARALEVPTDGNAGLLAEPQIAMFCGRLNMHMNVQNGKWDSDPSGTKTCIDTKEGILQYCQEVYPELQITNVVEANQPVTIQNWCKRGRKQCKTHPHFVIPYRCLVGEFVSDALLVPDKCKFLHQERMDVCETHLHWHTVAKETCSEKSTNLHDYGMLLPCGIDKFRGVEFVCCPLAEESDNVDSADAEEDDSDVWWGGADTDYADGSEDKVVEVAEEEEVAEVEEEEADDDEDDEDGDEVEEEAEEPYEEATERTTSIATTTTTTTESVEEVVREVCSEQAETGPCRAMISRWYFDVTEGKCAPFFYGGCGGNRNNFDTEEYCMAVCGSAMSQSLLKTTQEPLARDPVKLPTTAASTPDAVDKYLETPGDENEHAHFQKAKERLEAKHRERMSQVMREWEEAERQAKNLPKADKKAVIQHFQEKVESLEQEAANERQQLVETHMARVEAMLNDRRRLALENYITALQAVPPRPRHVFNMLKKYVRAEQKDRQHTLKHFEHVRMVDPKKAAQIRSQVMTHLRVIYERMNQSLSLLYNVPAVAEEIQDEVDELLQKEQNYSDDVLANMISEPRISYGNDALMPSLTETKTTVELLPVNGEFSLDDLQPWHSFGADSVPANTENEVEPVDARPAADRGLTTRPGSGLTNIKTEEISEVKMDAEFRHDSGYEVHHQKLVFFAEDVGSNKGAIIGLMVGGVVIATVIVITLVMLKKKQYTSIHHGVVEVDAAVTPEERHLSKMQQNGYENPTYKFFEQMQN

For the molecule `COc1cc2oc(-c3ccc(OC)c(-c4c(OC)cc(O)c5c(=O)cc(-c6ccc(O)cc6)oc45)c3)cc(O)c-2c(=O)c1` [7-O-methyl-isoginkgetin], the IC50 was above 50 µM.
As for `COc1ccc(-c2cc(=O)c3c(O)cc(OC)c(-c4cc(-c5cc(O)c6c(=O)cc(OC)cc-6o5)ccc4OC)c3o2)cc1` [7,4',7'',4'''-O-methyl-amentoflavone], the figure is above 50 µM.
With `COc1ccc(-c2cc(O)c3c(=O)cc(O)cc-3o2)cc1-c1c(OC)cc(O)c2c(=O)cc(-c3ccc(O)cc3)oc12` [4',7''-di-O-methyl-amentoflavone], the half-maximal inhibitory concentration (IC50) was above 50 µM.
As for `COc1ccc(-c2cc(=O)c3c(O)cc(O)c(-c4cc(-c5cc(O)c6c(=O)cc(OC)cc-6o5)ccc4OC)c3o2)cc1` [sciadopitisin], the figure is above 50 µM; as for `COc1ccc(-c2cc(=O)c3c(O)cc(OC)c(-c4cc(-c5cc(O)c6c(=O)cc(OC)cc-6o5)ccc4O)c3o2)cc1` [heveaflavone], above 50 µM.
On to `COc1ccc(-c2cc(=O)c3c(O)cc(O)c(-c4cc(-c5cc(O)c6c(=O)cc(O)cc-6o5)ccc4O)c3o2)cc1` [4'''-methylamentoflavone], for which the half-maximal inhibitory concentration (IC50) was determined as 4.9 µM.
The value for `COc1ccc(-c2cc(=O)c3c(O)cc(OC)c(-c4cc(-c5cc(O)c6c(=O)cc(O)cc-6o5)ccc4OC)c3o2)cc1` [kayaflavone] was above 50 µM; that for `COc1cc(O)c2c(=O)cc(-c3ccc(O)cc3)oc2c1-c1cc(-c2cc(O)c3c(=O)cc(O)cc-3o2)ccc1O` [sotetsuflavone] was above 50 µM.
With `COc1cc2oc(-c3ccc(O)c(-c4c(O)cc(O)c5c(=O)cc(-c6ccc(O)cc6)oc45)c3)cc(O)c-2c(=O)c1` [sequoiaflavone], the IC50 is 4.9 µM.

The record behind these values is BindingDB's records for doi:10.1016/j.bmcl.2019.05.020 (Meiji Pharmaceutical University, 2019).
